# Several values for one entry are separate records, joined by “and”; a condition that tells them apart may be missing. Identical values can stand only once.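 Exposure lasted 48 hours, with cells grown in 96-well plates and compounds tested at five concentrations. Here, GI50 denotes the concentration required for 50% inhibition of growth. Definition used: TGI = concentration required for complete inhibition of growth.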
# How the values were obtained:
# Experiment in all cases: NCI anticancer screen, dose series, 48 h
# MOLT-4 leukemia = tested on: MOLT-4 leukemia
# UACC-62 melanoma = tested on: UACC-62 melanoma
# SK-MEL-5 melanoma = tested on: SK-MEL-5 melanoma
# SF-295 CNS = tested on: SF-295 CNS
# NCI-H226 lung = tested on: NCI-H226 lung
# RXF 393 renal = tested on: RXF 393 renal
# HOP-62 NSCLC = tested on: HOP-62 NSCLC
# TK-10 renal = tested on: TK-10 renal
# ACHN renal = tested on: ACHN renal
# 786-0 renal = tested on: 786-0 renal
SMILES,TGI (MOLT-4 leukemia),TGI (UACC-62 melanoma),TGI (SK-MEL-5 melanoma),TGI (SF-295 CNS),TGI (NCI-H226 lung),TGI (RXF 393 renal),TGI (HOP-62 NSCLC),TGI (TK-10 renal),TGI (ACHN renal),TGI (786-0 renal),GI50 (MOLT-4 leukemia),GI50 (UACC-62 melanoma),GI50 (SK-MEL-5 melanoma),GI50 (SF-295 CNS),GI50 (NCI-H226 lung),GI50 (RXF 393 renal),GI50 (HOP-62 NSCLC),GI50 (TK-10 renal),GI50 (ACHN renal),GI50 (786-0 renal)
CCC(=O)c1cn(C)c(=O)c2ccccc12,> 100 µM,> 100 µM,> 100 µM,> 100 µM,> 100 µM,> 100 µM,> 100 µM,> 100 µM,> 100 µM,> 100 µM,,,,,,,,,,
CC(=O)NC(CCCCNC(=O)OCc1ccccc1)C(=O)NCc1ccccc1 (configuration not stated),> 100 µM,> 100 µM,> 100 µM,> 100 µM,> 100 µM,> 100 µM,> 100 µM,> 100 µM,> 100 µM,> 100 µM,,,,,,,,,,
Nc1nc(-c2cccc([N+](=O)[O-])c2)c(Br)c(=O)[nH]1,> 100 µM,> 69.7 µM,> 91.1 µM,> 66.6 µM,> 100 µM,> 100 µM,> 100 µM,> 100 µM,> 100 µM,> 100 µM,,,,,,,,,,
CC1=CSC2=NC(c3ccc(Cl)c(Cl)c3)=CC(c3ccc(Cl)cc3)N12 (configuration not stated),> 100 µM,> 100 µM,> 100 µM,> 100 µM,> 100 µM,> 100 µM,> 100 µM,> 100 µM,> 100 µM,> 100 µM,> 100 µM,> 100 µM,> 100 µM,> 100 µM,> 100 µM,> 100 µM,> 100 µM,> 100 µM,> 100 µM,> 100 µM
COc1cc(-c2cc(=O)c3cc4c(cc3[nH]2)OCO4)cc(OC)c1OC,> 100 µM,> 100 µM,> 100 µM,97.9 µM,> 100 µM,60.5 µM,65.2 µM,> 100 µM,> 100 µM,> 100 µM,,,,32 µM,> 100 µM,22.1 µM,,,,
Cc1c(CCCl)c(=O)n2c([nH]c3ccccc32)c1C#N,1.44 µM,2.75 µM,2.8 µM,3.48 µM,4.84 µM,3.8 µM,3.21 µM,5.62 µM,2.81 µM,2.84 µM,,,,,,,,,,
COc1cc(-c2cnn(C)c2)ccc1Nc1ncc2ccnc(N[C@@H](C)C(C)(C)C)c2n1,> 100 µM,> 100 µM,> 100 µM,> 100 µM,> 100 µM,> 100 µM,> 100 µM,> 100 µM,> 100 µM,> 100 µM,> 69 µM,> 100 µM,> 79 µM,> 63.3 µM,> 83.3 µM,8.98 µM,> 38.3 µM,> 79.9 µM,4.29 µM,> 31.6 µM
COc1cc([C@H](C)c2ccc3ccccc3c2)cc(OC)c1OC,> 100 µM,> 100 µM,11.1 µM,> 100 µM,> 100 µM,> 100 µM,> 100 µM,> 100 µM,> 100 µM,20 µM,0.504 µM,0.499 µM,0.26 µM,0.201 µM,2.94 µM,0.22 µM,0.578 µM,12.2 µM,0.857 µM,0.536 µM
CCCCNc1nc(NC(C)(C)C)nc(NC(C)(C)C)n1,> 100 µM,> 100 µM,17.7 µM,> 100 µM,> 100 µM,76.9 µM,> 100 µM,> 100 µM,> 100 µM,> 100 µM,5.69 µM,3.25 µM,3.49 µM,6.03 µM,6.44 µM,8.07 µM,18.7 µM,52.6 µM,6.41 µM,30.7 µM
Cc1cc(/C=C2\SC(=Nc3ccccc3)N(C3CCCC3)C2=O)c(C)n1-c1ccc(Cl)cc1,> 100 µM,> 100 µM,> 100 µM,> 100 µM,> 100 µM,> 100 µM,> 100 µM,> 100 µM,> 100 µM,> 100 µM,> 100 µM,> 100 µM,> 100 µM,> 100 µM,> 100 µM,> 100 µM,> 100 µM,> 100 µM,> 100 µM,> 100 µM
O=c1ccn(C2OC(CO)C(O)C2O)c(=O)[nH]1 (configuration not stated),> 1000 µM,> 1000 µM,> 1000 µM,> 1000 µM,> 1000 µM,> 1000 µM,> 1000 µM,> 1000 µM,> 1000 µM,> 1000 µM,832 µM and > 10 µM,> 1000 µM,> 1000 µM,> 1000 µM,,> 1000 µM,> 1000 µM,> 1000 µM,> 1000 µM,> 1000 µM
COc1cc(/C=C/c2cc(C(F)(F)F)[nH]c(=O)n2)ccc1OCc1ccccc1F,38 µM,21.6 µM,20.2 µM,22 µM,43.2 µM,8.78 µM,25 µM,39.1 µM,38.7 µM,33.1 µM,7.27 µM,7.57 µM,6.97 µM,5.07 µM,11.9 µM,2.4 µM,10.3 µM,18 µM,12.7 µM,16.2 µM
O=c1oc2ccccc2c(O)c1/C=N\c1nc(-c2ccccc2)cs1,7.03 µM,19.3 µM,9.65 µM,69.2 µM,23 µM,26.9 µM,64.4 µM,7.58 µM,24 µM,40.2 µM,,,,,,,,,,
CN1CCN(Cc2ccc(NC(=O)c3cncc(C#Cc4cnc(N)c5ccc(F)cc45)c3)cc2C(F)(F)F)CC1,6.19 µM,8.48 µM,6.68 µM,7.35 µM,6.16 µM,2.73 µM,7.24 µM,6.68 µM,4.36 µM,9.99 µM,0.974 µM,4 µM,2.26 µM,2.9 µM,1.05 µM,0.826 µM,2.89 µM,2.44 µM,1.02 µM,3.95 µM
COc1ccc(-c2c(C3=NCCN3)nnn2-c2ccccc2)cc1,> 100 µM,> 100 µM,> 100 µM,> 100 µM,> 100 µM,> 100 µM,> 100 µM,> 100 µM,> 100 µM,> 100 µM,,,,,,,,,,
CCOC(=O)[C@@H](C)C[C@H](Cc1ccccc1)NC(=O)c1csc([C@@H](C[C@H](C(C)C)N(C)C(=O)[C@@H](NC(=O)[C@H]2C[C@H](O[Si](C)(C)C(C)(C)C)CCN2C)C(C)C)OC(C)=O)n1,> 8.33 µM,3.58 µM,1.39 µM,3.41 µM,> 4.18 µM,0.481 µM,> 8.01 µM,> 8.33 µM,> 8.33 µM,> 4.36 µM,0.354 µM,0.0545 µM,0.187 µM,0.249 µM,0.493 µM,0.159 µM,0.411 µM,0.946 µM,0.427 µM,0.286 µM
c1ccc2c(c1)[I+]c1ccccc1-2,> 50 µM,> 50 µM,> 50 µM,> 50 µM,> 50 µM,> 50 µM,> 50 µM,> 50 µM,> 50 µM,> 50 µM,> 50 µM,> 50 µM,24.3 µM,35 µM,> 50 µM,> 50 µM,28 µM,> 50 µM,> 50 µM,> 50 µM
COc1cc2c(cc1C)NC(=O)/C2=C\c1cc(OC)c(OC)c(OC)c1,38.8 µM,> 100 µM,> 100 µM,> 100 µM,> 100 µM,36.1 µM,53.9 µM,> 100 µM,> 100 µM,> 100 µM,12.5 µM,37.3 µM,> 100 µM,39.5 µM,> 100 µM,14.2 µM,22.1 µM,93.7 µM,64.1 µM,32.4 µM
CC(=O)OCC1OC(n2c(-c3ccccc3)cc(-c3ccco3)c(C#N)c2=O)C(OC(C)=O)C(OC(C)=O)C1OC(C)=O (configuration not stated),> 100 µM,> 100 µM,> 100 µM,> 100 µM,> 100 µM,> 100 µM,> 100 µM and 65.4 µM,> 100 µM,> 100 µM,> 100 µM,,23.3 µM and 55.8 µM,,,,,> 100 µM and 22.1 µM,,,
O=C(Oc1ccc(O)c2c(=O)n3c(cc12)[nH]c1ccccc13)c1ccccc1,62.6 µM,27.5 µM,36.9 µM,> 100 µM,64.2 µM,0.505 µM,54.5 µM,40.8 µM,23.6 µM,32.5 µM,16.4 µM,13.7 µM,15.5 µM,40.8 µM,18.9 µM,,22.4 µM,18.8 µM,7.55 µM,14.4 µM
O=c1cc(-c2ccccc2)[nH]c2cc(Cl)cc(Cl)c12,> 100 µM,> 100 µM,> 100 µM,> 100 µM,> 100 µM,51.2 µM,> 100 µM,> 100 µM,> 100 µM,60 µM,,,,,,,,,,
NC(N)=N/N=C(/c1nc2ccc([N+](=O)[O-])cc2[nH]c1=O)C(O)c1ccco1 (configuration not stated),> 100 µM,> 100 µM,> 100 µM,> 100 µM,> 100 µM,> 100 µM,> 100 µM,> 100 µM,> 100 µM,> 100 µM,,,,,,,,,,
COC(=O)c1c(-c2ccccc2)cc2c3cc(-c4ccccc4)c(C(=O)OC)n3c3ccccc3n12,> 100 µM,> 100 µM,> 100 µM,> 100 µM,> 100 µM,> 94.7 µM,> 100 µM,> 100 µM,> 100 µM,> 100 µM,,,,,,,,,,
CCCC(=O)c1c(NOC2OC(COC(C)=O)C(OC(C)=O)C(OC(C)=O)C2OC(C)=O)nc(OC)n(C)c1=O (configuration not stated),> 100 µM,> 100 µM,> 100 µM,> 100 µM,> 100 µM,> 100 µM,> 100 µM,> 100 µM,> 100 µM,> 100 µM,,,,,,,,,,
O=C(C(O)c1cn(Cc2ccccc2)c2ccccc12)N1CCCCC1 (configuration not stated),> 100 µM,> 100 µM,> 100 µM,> 100 µM,> 100 µM,> 10 µM,> 100 µM,> 10 µM,> 100 µM,> 100 µM,,,,,,,,,,
CC1=C2C(O)C(C(C)CO)C(O)CC2(C)C(O)CC1 (configuration not stated),> 100 µM,> 100 µM,> 100 µM,> 100 µM,> 100 µM,> 100 µM,> 100 µM,> 100 µM,> 100 µM,> 100 µM,,,,,,,,,,
O=C(Nc1ccccc1C(F)(F)F)c1cccc(NC2=C(Cl)C(=O)N(Cc3ccccc3)C2=O)c1,30.8 µM,52.7 µM,3.04 µM,> 45.5 µM,52.9 µM,12.3 µM,> 52.2 µM,37.2 µM,26.9 µM,> 40.1 µM,4.29 µM,9.46 µM,,> 19.9 µM,15.4 µM,3.13 µM,19.1 µM,6.85 µM,5.39 µM,12.4 µM
CC(=O)CC1CCC(=O)CCC(=O)OC(CC(C)=O)CCC(=O)CCC(=O)O1 (configuration not stated),> 100 µM,> 100 µM,> 100 µM,> 100 µM,> 100 µM,> 100 µM,> 100 µM,> 100 µM,> 100 µM,> 100 µM,,,,,,,,,,
COc1cc(OC2OC(C)C(O)C(O)C2O)cc2oc(-c3ccc(O)cc3)c(CC=C(C)C)c(=O)c12 (configuration not stated),17.7 µM,31.9 µM,30.9 µM,> 100 µM,69.7 µM,64.6 µM,49.6 µM,64.7 µM,59.8 µM,60 µM,3.45 µM,12.8 µM,13.6 µM,33.9 µM,21.9 µM,20.3 µM,18.2 µM,25 µM,22 µM,11.7 µM
C=CCNC(=S)N1CC(C)C(=O)Nc2ccccc21 (configuration not stated),> 100 µM,> 100 µM,> 100 µM,> 100 µM,> 100 µM,> 100 µM,> 100 µM,> 100 µM,> 100 µM,> 100 µM,,,,,,,,,,

# From PubChem BioAssay (NCI)
